Measured values taken from ChEMBL document CHEMBL4483862, “Open-source discovery of chemical leads for next-generation chemoprotective antimalarials” (2018).

Tested on: Plasmodium berghei
Test: Luciferase/luciferin-expressing antifolate-resistant parasites were used to infect a culture of HepG2 cells that were pre-incubated with compounds. Infected hepatocytes emit light due to the luciferase reaction. Assay results are presented as the percent inhibition of light emission compared to control. […]
Format: functional
Conditions: sporozoite; for IC50: read-out: LUCIFERASE INFECTION ASSAY - IC50; for IC90: read-out: LUCIFERASE INFECTION ASSAY - IC90

COc1ccc(/C=C(/C(=O)c2cccs2)N2C=CC=CC2=C(C#N)C#N)cc1
IC50: > 10 µM | IC90: > 10 µM

Cc1cnc(C(=O)OCC(=O)NCCc2ccccc2)cn1
IC50: > 10 µM | IC90: > 10 µM

Cc1nn(-c2ccccc2)c(N2CCCC2)c1/C=N/Nc1ccc(S(N)(=O)=O)cc1[N+](=O)[O-]
IC50: 9.05 µM | IC90: > 10 µM

N=C(N)N/N=C/c1ccc(N(c2ccccc2)c2ccccc2)cc1
IC50: 8.03 µM | IC90: 9.95 µM

C/C(=N\N1CCCCC1)c1ccccc1O
IC50: > 10 µM | IC90: > 10 µM

Cc1ccc2c(c1)s/c(=N/C(=O)c1cccs1)n2C
IC50: 2.27 µM | IC90: > 10 µM

NS(=O)(=O)c1ccc(N/N=C/c2cn(-c3ccccc3)nc2-c2cccs2)c([N+](=O)[O-])c1
IC50: > 10 µM | IC90: > 10 µM

COC(=O)c1ccc(COc2ccc(/C=N/Nc3ccnc4cc(Cl)ccc34)cc2OC)cc1
IC50: > 10 µM | IC90: > 10 µM

C(=C(c1nc2ccccc2s1)c1nc2ccccc2s1)c1ccc(N2CCOCC2)cc1
IC50: 0.749 µM | IC90: 3.63 µM

O=C(CSc1cccc[n+]1[O-])Nc1ccccc1OC(F)F
IC50: > 10 µM | IC90: > 10 µM

O=C(N/N=C/c1c(Cl)nc2ccccn2c1=O)c1ccc(F)cc1
IC50: > 10 µM | IC90: > 10 µM

O=C(/C=C/c1cn(-c2ccccc2)nc1-c1cccnc1)Nc1nc(-c2ccccn2)cs1
IC50: 5.33 µM | IC90: 8.39 µM

N#Cc1ccc(Cl)cc1/N=C/C(Br)=C/c1ccccc1
IC50: > 10 µM | IC90: > 10 µM

Cc1ccc2nc(-c3ccc(NC(=O)COC(=O)c4ccccc4C(=O)c4ccccc4)cc3)sc2c1
IC50: > 10 µM | IC90: > 10 µM

Cc1ccc(S(=O)(=O)NC(=O)c2c(C(=O)NS(=O)(=O)c3ccc(C)cc3)c(C)n(-c3ccc(N(C)C)cc3)c2C)cc1
IC50: > 10 µM | IC90: > 10 µM

Cc1ccc(NC(=O)/C(=N/N)c2c(-c3ccccc3)nc3ccccn23)c(Br)c1
IC50: > 10 µM | IC90: > 10 µM

O=C1COc2ccc(-c3cs/c(=N\c4ccc(OC(F)F)cc4)n3Cc3ccco3)cc2N1
IC50: > 10 µM | IC90: > 10 µM

Cc1ccc2c(c1)C1CN(C)CCC1N2C(=O)CCCOc1ccc(Cl)cc1Cl (centres undefined)
IC50: > 10 µM | IC90: > 10 µM

O=C(Nc1cccc(S(=O)(=O)NC2=NCCCCC2)c1)c1cncc(Br)c1
IC50: > 10 µM | IC90: > 10 µM

O=C(NC(=S)NN(Cc1ccccc1)c1ccccc1)C12CC3CC(CC(C3)C1)C2
IC50: > 10 µM | IC90: > 10 µM

CN1C(=O)NC(c2ccccc2C(F)(F)F)C(C(=O)c2cccs2)C1(O)C(F)(F)F (centres undefined)
IC50: > 10 µM | IC90: > 10 µM

CC(/N=c1\ccccn1C(=O)Nc1ccc(Cl)c(Cl)c1)c1ccco1 (centres undefined)
IC50: 6.62 µM | IC90: 9.14 µM

C/C(=N\c1cc(C(F)(F)F)ccc1Cl)Nc1ccc(C)cc1
IC50: > 10 µM | IC90: > 10 µM

COc1ccc(NS(=O)(=O)c2cc([N+](=O)[O-])ccc2NNC(=S)NC2CCCCC2)cc1
IC50: > 10 µM | IC90: > 10 µM

CC1CCCCC1NC(=O)/C(C#N)=C/c1ccc(OC(F)F)cc1OC(F)F (centres undefined)
IC50: > 10 µM | IC90: > 10 µM

O=C(CCN1CCN(C(c2ccccc2)c2ccccc2)CC1)NNC(=O)c1ccc(I)cc1
IC50: > 10 µM | IC90: > 10 µM

C/N=c1\scc(-c2cc3ccccc3o2)n1/N=C/c1cccc(O)c1O
IC50: > 10 µM | IC90: > 10 µM

COC(=O)c1cc(C(=O)OC)cc(-n2c(C)cc(C(O)(C(=O)OC)C(F)(F)F)c2C)c1 (centres undefined)
IC50: > 10 µM | IC90: > 10 µM

Cn1c[n+](C2=C(NS(=O)(=O)c3ccc([N+](=O)[O-])cc3)C(=O)c3ccccc3C2=O)c2ccccc21
IC50: 2.53 µM | IC90: 5.03 µM

Cn1/c(=N/N=C2\C(=O)N(Cc3ccccc3)c3ccccc32)sc2ccccc21
IC50: > 10 µM | IC90: > 10 µM

C(=N\Nc1ncnc2sc3c(c12)CCCC3)/c1c(-c2ccccc2)n(-c2ccccc2)c2ccccc12
IC50: > 10 µM | IC90: > 10 µM

CCN(CC)S(=O)(=O)c1ccc(N/N=C2/C=CC(=O)c3ncccc32)cc1
IC50: > 10 µM | IC90: > 10 µM

COc1ccc(-c2nn(-c3ccccc3)cc2C(=O)Nc2cc(C(F)(F)F)ccc2N2CCCCC2)cc1
IC50: > 10 µM | IC90: > 10 µM

N#CC(c1nc(-c2ccc(Cl)cc2)cs1)N1CCc2ccccc2C1 (centres undefined)
IC50: > 10 µM | IC90: > 10 µM

CCN(CC)S(=O)(=O)c1cccc(-c2nnc(SCC(=O)N3CCc4ccccc43)n2-c2ccccc2)c1
IC50: > 10 µM | IC90: > 10 µM

COc1ccccc1CNC(=O)c1cc(Cl)ccc1OC
IC50: > 10.8 µM | IC90: > 10.8 µM

O=C(/C=C/c1ccc([N+](=O)[O-])s1)Nc1ccc(F)cc1F
IC50: 8.88 µM | IC90: > 10 µM

Cc1c(-c2cccc(Cl)c2)nc2ccccc2c1C(=O)OCC(=O)C(C#N)=C1Nc2ccccc2N1
IC50: > 10 µM | IC90: > 10 µM

CCOC(=O)c1cc(N/N=C(/C(=O)Nc2cccnc2)C(=O)c2ccccc2)cc(C(=O)OCC)c1
IC50: > 10 µM | IC90: > 10 µM

O=C(N/N=C/C1=C(N2CCOCC2)C(=C\c2ccccc2)/CC1)c1ccco1
IC50: 2.96 µM | IC90: 3.47 µM

COC(=O)c1cc2c(N)c(C(=O)c3cc(C#N)c(SC)nc3C)sc2nc1C
IC50: 5.83 µM | IC90: > 10 µM

O=C(NC(=S)NN(C(=S)NC(=O)c1ccccc1Br)c1nc2ccccc2[nH]1)c1ccccc1Br
IC50: > 10 µM | IC90: > 10 µM

CCn1c2ccccc2c2cc(/C=C(\C#N)c3nnc(N4CCOCC4)n3-c3ccccc3)ccc21
IC50: > 10 µM | IC90: > 10 µM

CC(C(=O)OCC(=O)Nc1ccc(Cl)c2c1C(=O)c1ccccc1C2=O)N1C(=O)c2ccccc2C1=O (centres undefined)
IC50: > 10 µM | IC90: > 10 µM

Cc1cccc(NS(=O)(=O)c2cc(C(=O)OCC(=O)Nc3ccc(F)c(F)c3F)ccc2C)c1
IC50: > 10 µM | IC90: > 10 µM

CCOc1ccccc1N/C=C1/C(=O)N(Cc2ccc3c(c2)OCO3)C(=O)c2ccccc21
IC50: > 10 µM | IC90: > 10 µM

Cc1nn(-c2ccccc2)c2c1C(C(F)(F)F)(C(F)(F)F)OC(c1cccc(S(=O)(=O)N3CCCCC3)c1)=N2
IC50: > 10 µM | IC90: > 10 µM

CN(C)S(=O)(=O)c1cccc(NC(=O)c2ccc3c(c2Cl)C(=O)c2ccccc2C3=O)c1
IC50: 8.82 µM | IC90: > 10 µM

CC(=O)n1c(Nc2ccc(F)cc2)c(Sc2ccccc2[N+](=O)[O-])c2ccccc2c1=O
IC50: 5.95 µM | IC90: > 10 µM

CSCCC(C(=O)Oc1c(Cl)cc(Cl)c2ccc(C)nc12)N1C(=O)c2ccccc2C1=O (centres undefined)
IC50: > 10 µM | IC90: > 10 µM

CCn1c(C)nc2cc(C(=O)NNC(=O)c3cc4c(C)nn(-c5cccc(C(F)(F)F)c5)c4s3)ccc21
IC50: > 10 µM | IC90: > 10 µM

O=C1NC(c2ccccc2)=C(C(=O)C(F)(F)F)C(c2ccc(OC(F)F)cc2)N1 (centres undefined)
IC50: > 10 µM | IC90: > 10 µM

Cc1nn(-c2ccc(Cl)cc2)c2sc(C(=O)NC(C)(C)CC(C)(C)C)cc12
IC50: > 10 µM | IC90: > 10 µM

Cc1nn(-c2ccccc2)c(Cl)c1C(=O)N1CCN(C(c2ccccc2)c2ccccc2)CC1
IC50: > 10 µM | IC90: > 10 µM

S=C(NCc1ccccc1)N/N=C1/CCCCC1C1CCCCC1 (centres undefined)
IC50: > 10 µM | IC90: > 10 µM

N#C/C(=C\c1ccc(OC(=O)c2cccnc2)cc1)c1nnc2n1CCCCC2
IC50: > 10 µM | IC90: > 10 µM

Cc1c(Sc2ccc(F)cc2)c2ccccn2c1/C(=N\S(=O)(=O)c1cccs1)c1ccccc1
IC50: > 10 µM | IC90: > 10 µM

Cc1cc(C=C2Sc3ccc4ccccc4c3N2C)cc(C)[n+]1Cc1cccnc1
IC50: > 10 µM | IC90: > 10 µM

O=[N+]([O-])c1ccc(NN=C2CCSC2)c(S(=O)(=O)Nc2ccc(Cl)cc2)c1
IC50: > 10 µM | IC90: > 10 µM

COc1ccc(NS(=O)(=O)c2cc(NC(=O)c3cc(S(=O)(=O)Nc4ccc(Cl)cc4)ccc3Cl)ccc2N2CCOCC2)cc1
IC50: > 10 µM | IC90: > 10 µM

O=C(/C=C/c1cc([N+](=O)[O-])ccc1OC(F)F)N1CCN(C(c2ccccc2)c2ccccc2)CC1
IC50: > 10 µM | IC90: > 10 µM

NC(=O)c1c(NC(=O)/C=C/c2cn(-c3ccccc3)nc2-c2cccnc2)sc2c1CCCC2
IC50: > 10 µM | IC90: > 10 µM

CN(C)S(=O)(=O)c1cccc(C(=O)N(Cc2ccccc2)CC(O)COC(c2ccccc2)c2ccccc2)c1 (centres undefined)
IC50: > 10 µM | IC90: > 10 µM

CCN1C/C(=C/c2ccc(NC(C)=O)cc2)C(=O)/C(=C/c2ccc(NC(C)=O)cc2)C1
IC50: > 10 µM | IC90: > 10 µM

O=C(Nc1nc(-c2cccs2)c(C(=O)C(F)(F)F)s1)c1ccc(S(=O)(=O)N2CCCCC2)cc1
IC50: 9.17 µM | IC90: > 10 µM

Cc1nn2c(nc(Sc3nc4ccccc4o3)c3ccccc32)c1/C=N/NC(=O)c1cccc(S(=O)(=O)N2CCOCC2)c1
IC50: > 10 µM | IC90: > 10 µM

Cc1cccn2c(=O)c(/C=N/O)c(Nc3ccc(SC(F)F)cc3)nc12
IC50: > 10 µM | IC90: > 10 µM

COc1cc(-c2cc(C(=O)N/N=C3/C(=O)N(CC(C)C)c4ccccc43)c3ccccc3n2)cc(OC)c1OC
IC50: > 10 µM | IC90: > 10 µM

Cc1cc(=O)nc(N/N=C2/CCc3ccccc3C2)[nH]1
IC50: 5.6 µM | IC90: > 10 µM

O=C1C=C/C(=N/N(Cc2ccccc2)c2ccccc2)O1
IC50: > 10 µM | IC90: > 10 µM

C/C(CCc1ccc2c(c1)OCO2)=N\Nc1nc2ccccc2[nH]1
IC50: > 10 µM | IC90: > 10 µM

Cc1cccc(C)c1NC(=O)CSc1nc(=O)c2c(C)c(-c3ccccc3)sc2[nH]1
IC50: > 10 µM | IC90: > 10 µM

O=C(Nc1ccc(C(OC(=O)c2ccccc2)(C(F)(F)F)C(F)(F)F)cc1)c1ccccc1
IC50: > 10 µM | IC90: > 10 µM

CCOC(=O)c1c(C)[nH]c(C(=O)CSc2nnc(C3COc4ccccc4O3)n2-c2ccccc2)c1C (centres undefined)
IC50: > 10 µM | IC90: > 10 µM

CC12CC3CC(C1)CC(c1ccc(O)cc1)(C3)C2
IC50: > 10 µM | IC90: > 10 µM

CCn1c2ccccc2c2cc(/C=C(/C(=O)c3ccccc3)c3nc4ccccc4[nH]3)ccc21
IC50: 9.13 µM | IC90: > 10 µM

CN(c1ccccc1)S(=O)(=O)c1cc(C(=O)c2nnc(-c3ccc(Cl)cc3)o2)ccc1Cl
IC50: > 10 µM | IC90: > 10 µM
